Results: ChEMBL document CHEMBL3351629, “Modulators of the nuclear receptor retinoic acid receptor-related orphan receptor-γ (RORγ or RORc)” (J Med Chem, 2014)

Tests used:
[1] = target: T1, Nuclear receptor ROR-gamma (Homo sapiens, UniProt P51449); assay: Binding affinity to RORgamma (unknown origin)
T1 sequence (P51449 whole entry): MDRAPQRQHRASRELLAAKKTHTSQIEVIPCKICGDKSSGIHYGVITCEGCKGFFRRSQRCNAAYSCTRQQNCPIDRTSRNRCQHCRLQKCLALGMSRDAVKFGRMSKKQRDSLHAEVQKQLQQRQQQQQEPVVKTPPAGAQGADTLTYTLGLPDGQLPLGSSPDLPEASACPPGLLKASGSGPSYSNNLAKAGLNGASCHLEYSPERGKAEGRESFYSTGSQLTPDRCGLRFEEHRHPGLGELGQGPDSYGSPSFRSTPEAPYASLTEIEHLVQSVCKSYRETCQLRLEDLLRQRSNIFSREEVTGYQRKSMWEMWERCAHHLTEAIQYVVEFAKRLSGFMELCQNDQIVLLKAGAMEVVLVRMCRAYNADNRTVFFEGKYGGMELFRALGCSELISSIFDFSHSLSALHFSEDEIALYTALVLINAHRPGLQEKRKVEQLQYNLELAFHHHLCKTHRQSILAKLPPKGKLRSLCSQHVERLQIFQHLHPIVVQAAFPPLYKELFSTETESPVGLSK

[2] = target: T2, Nuclear receptor ROR-gamma (Mus musculus) (UniProt P51450); assay: Activity at RoRc in mouse CD4+ T cells assessed as inhibition of IL-17 production at 10 uM; assay type: cell-based; settings: T-cell
T2 sequence (whole entry): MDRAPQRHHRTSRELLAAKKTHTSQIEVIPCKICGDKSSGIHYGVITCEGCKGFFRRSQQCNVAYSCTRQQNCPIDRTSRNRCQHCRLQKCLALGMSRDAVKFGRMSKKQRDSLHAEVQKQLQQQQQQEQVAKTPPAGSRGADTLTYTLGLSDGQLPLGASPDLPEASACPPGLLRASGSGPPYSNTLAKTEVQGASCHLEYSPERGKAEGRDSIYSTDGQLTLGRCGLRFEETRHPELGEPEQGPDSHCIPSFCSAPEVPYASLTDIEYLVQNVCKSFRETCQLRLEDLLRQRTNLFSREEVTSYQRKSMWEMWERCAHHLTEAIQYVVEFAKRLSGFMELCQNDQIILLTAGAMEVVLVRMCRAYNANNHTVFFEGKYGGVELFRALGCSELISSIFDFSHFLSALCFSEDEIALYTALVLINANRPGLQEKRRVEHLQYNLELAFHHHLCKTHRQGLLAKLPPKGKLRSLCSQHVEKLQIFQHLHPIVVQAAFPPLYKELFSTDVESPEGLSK

[3] = tested on: Mus musculus; assay: Decrease in serum IL-17a level in mouse at 30 mg/kg in presence of anti-CD3 antibody; assay type: functional
[4] = tested on: Mus musculus; assay: Decrease in serum IL-17a level in mouse at 100 mg/kg in presence of anti-CD3 antibody; assay type: functional
[5] = tested on: Mus musculus; assay: Decrease in serum IL-17a level in mouse at 300 mg/kg in presence of anti-CD3 antibody; assay type: functional

Row | SMILES | IC50 [1] | inhibition [2] | inhibition in vivo at 30 mg/kg [3] | inhibition in vivo at 100 mg/kg [4] | inhibition in vivo at 300 mg/kg [5]
1 | C[C@H]1O[C@@H](O[C@H]2[C@@H](O)C[C@H](O[C@H]3[C@@H](O)C[C@H](O[C@H]4CC[C@@]5(C)[C@H](CC[C@@H]6[C@@H]5C[C@@H](O)[C@]5(C)[C@@H]([C@@H](CO)CCO)CC[C@]65O)C4)O[C@@H]3C)O[C@@H]2C)C[C@H](O)[C@@H]1O | 12 µM | – | – | – | –
2 | CCn1c2ccccc2c2cc(NC(=O)CC(C)CC(=O)Nc3ccc(C#N)c(Cl)c3)ccc21 (stereo not given) | – | 96% | 10% | 25% | 53%
